Measurements reported in article PMC11729419, “Thiol-Reactive or Redox-Active: Revising a Repurposing Screen Led to a New Invalidation Pipeline and Identified a True Noncovalent Inhibitor Against Papain-like Protease from SARS-CoV-2” (ACS Pharmacology & Translational Science, 2024).
Read-outs that look alike come from different tables or passages of the source.

What was measured:
[1] = tested on: SARS-CoV-2 BetaCoV/Belgium/GHB-03021/2020 strain; format: cell-based; conditions: 300 μM, 2 μM CP-100356
[2] = Table S1, 20 µM, DTT buffer
[3] = target: SARS-CoV-2 Mpro (Severe acute respiratory syndrome coronavirus 2, UniProt P0DTD1); format: biochemical; conditions: 10 μM; 1 mM DTT
[4] = target: SARS-CoV-2 PLpro (Severe acute respiratory syndrome coronavirus 2, UniProt P0DTD1); format: biochemical; conditions: dose-response, ISG15 substrate
[5] = tested on: USP14, USP7, cathepsin-L; format: biochemical, human; conditions: 10 μM; 1 mM DTT
Procedure: The assay was performed according to the manufacturer protocol, adapted to 384-well format with a final volume of 10 μL. […] 5 μL of cathepsin-L was added and incubated for 30 min at 25 °C. The enzymatic reaction was initiated by adding 5 μL substrate. […] Final assay concentrations of cathepsin-L and substrate were 0.01 ng/μL and 5 μM, respectively.
Plates were sealed and incubated for 30 min at 25 °C, followed by adding 5 μL/0.5 μM Ubiquitin-AMC (R&D Systems #U-550-050) substrate. The fluorescence signal was measured after 30 min of incubation (Ex/Em = 340/460; EnVision, PerkinElmer). […] The assay buffer is 50 mM Tris, 150 mM NaCl, 1 mM DTT, and 0.01% Tween 20 (pH 7.5).

[6] = target: SARS-CoV-2 PLpro-NAB (Severe acute respiratory syndrome coronavirus 2, UniProt P0DTD1); assay: biochemical; conditions: for HC PLpro-NAB inhibition [%] 20 μM triplicates 1 mM DTT buffer: hit confirmation, DMSO = 0%; for HC PLpro-NAB inhibition [%] 20 μM triplicates 1 mM DTT buffer / HP PLpro-NAB inhibition [%] 20 μM triplicates 1 mM L-cys buffer: average (SD), 20 μM PR619 = 100%; for HP PLpro-NAB inhibition [%] 20 μM triplicates 1 mM L-cys buffer / IC50: hit profiling

| SMILES | Spike RNA copy number [1] | Interference inhibition [%] 20 µM based on product interference DTT BUFFER ([2]; listed as CPI-169 (EOS)) [%] | Interference inhibition [%] 20 µM based on product interference DTT BUFFER ([2]; listed as CPI-169 (FhG)) [%] | Preference PLpro over Mpro [3] | Potency against PLpro compared with PLpro-NAB [4] | Selectivity versus human USP14, USP7, cathepsin-L [5] | Interference inhibition [%] 20 µM based on product interference DTT BUFFER ([2]; listed as Semapimod (EOS)) [%] | Interference inhibition [%] 20 µM based on product interference DTT BUFFER ([2]; listed as Semapimod (FhG)) [%] | Inhibition in L-cysteine buffer versus DTT buffer (dose-response) ([6]; 1 mM L-cysteine vs 1 mM DTT) | Inhibitory activity on retest in 1 mM L-cysteine ([6]; 50% inhibition at 20 μM, 1 mM L-cysteine) | HC PLpro-NAB inhibition [%] 20 μM triplicates 1 mM DTT buffer ([6]; 1 mM DTT buffer, listed as semapimod (EOS)) | HC PLpro-NAB inhibition [%] 20 μM triplicates 1 mM DTT buffer ([6]; 1 mM DTT buffer, listed as semapimod (FhG)) | HP PLpro-NAB inhibition [%] 20 μM triplicates 1 mM L-cys buffer ([6]; 1 mM L-cys buffer, listed as semapimod (EOS)) | HP PLpro-NAB inhibition [%] 20 μM triplicates 1 mM L-cys buffer ([6]; 1 mM L-cys buffer, listed as semapimod (FhG)) | IC50 ([6]; read-out: HP PLpro-NAB IC50 [μM] duplicates 1 mM L-cys buffer, 1 mM L-cys buffer, listed as semapimod (EOS)) [µM] | IC50 ([6]; read-out: HP PLpro-NAB IC50 [μM] duplicates 1 mM L-cys buffer, 1 mM L-cys buffer, listed as semapimod (FhG)) [µM] | IC50 ([6]; read-out: HP PLpro-NAB IC50 [μM] triplicates 1 mM DTT buffer, 1 mM DTT buffer, listed as semapimod (EOS)) [µM] | IC50 ([6]; read-out: HP PLpro-NAB IC50 [μM] triplicates 1 mM DTT buffer, 1 mM DTT buffer, listed as semapimod (FhG)) [µM] |
| --- | --- | --- | --- | --- | --- | --- | --- | --- | --- | --- | --- | --- | --- | --- | --- | --- | --- | --- |
| CCS(=O)(=O)N1CCC([C@@H](C)n2c(C)c(C(=O)NCc3c(OC)cc(C)[nH]c3=O)c3ccccc32)CC1 [CPI-169] | reduced the Spike RNA copy number significantly | 9.34 | -0.73 | preferential inhibition of PLpro over Mpro |  |  |  |  |  |  |  |  |  |  |  |  |  |  |
| C/C(=N\NC(=N)N)c1cc(NC(=O)CCCCCCCCC(=O)Nc2cc(/C(C)=N/NC(=N)N)cc(/C(C)=N/NC(=N)N)c2)cc(/C(C)=N/NC(=N)N)c1 [semapimod] |  |  |  | preferential inhibition of PLpro over Mpro | activity exclusively against PLpro-NAB | active across all of the tested targets | 9.91 | -5.72 | did not show variations in inhibition potency or thermal stability | retained their inhibitory activity | 140.16 (2.99) % | 118.80 (3.35) % | 50.46 (6.98) % | 51.28 (5.64) % | > 20 | 14.4 | 1.21 | 5.23 |
